The text below walks through data of patent US20240390377A1, “COMPOSITION FOR THE PREVENTION OR TREATMENT OF NEURODEGENERATIVE OR MOTOR NEURON DISEASES COMPRISING HALOFUGINONE AS AN ACTIVE INGREDIENT” (CURAMYS CO., LTD., priority 2022, published 2024).

For assay [1], the system named is G93A mutant SOD1 transgenic mice. Put plainly: Immunohistochemical analysis of knee joint synovial cavity in ALS animal model. In kind it is in vivo, mouse. As for the experimental part:
(§1) As a control group, non-transgenic mice were injected intraperitoneally (i.p.) with vehicle (DMSO) in the same manner for the same period of time.
Specifically, the mice of Example 6 above were perfused with 4% paraformaldehyde (PFA) on 90 and 120 days of age, and the lumbar spinal cord and knee joints were separated. After fixation in 4% PFA for 24 hours, the knee joints were rinsed in running tap water for 24 hours and then incubated at 4° C. with continuous shaking in decalcifying solution (Calci-Clear, HS-104, National Diagnostics). The decalcification solution was replaced daily with fresh solution until the bones were easily penetrated with a needle, indicating completion of the decalcification process. Subsequently, the decalcified knee joints were rinsed in running tap water for 24 hours, and the spinal cord and knee joint samples were treated with 30% sucrose until they sank, followed by freeze protection, followed by successive cuts (14 μm). The lumbar spinal cord and knee joint tissue sections were washed three times with PBS and permeabilized with 0.5% Triton X-100 for 5 minutes. Subsequently, they were blocked with 5% bovine serum albumin (BSA) in 0.3% PBS-T at room temperature for 1 hour. The knee joint tissue sections were incubated with anti-TGF-β1 antibody (1:200; Santa Cruz, cat #sc130348), anti-α-SMA antibody (1:200; Abcam, cat #ab7817), anti-MyoD antibody (1:200; Santa Cruz, cat #sc377460), and anti-Collagen I antibody (1:200; Abcam, cat #ab21286) each, while the lumbar spinal cord sections were incubated with anti-GFAP antibody (1:200; Dako, cat #Z0334), anti-Iba1 antibody (1:200; Wako, cat #016)-20001), anti-TGF-β1 antibody (1:200; Santa Cruz, cat #sc130348), anti-TGF-β1 antibody (1:200; Abcam, cat #ab92486), and anti-IL-1β antibody (1:200; R&D Systems, cat #AF-401-NA) at 4° C. for an additional 24 hours. After washing the sections three times with PBS, they were incubated with Alexa Fluor secondary antibodies in a dark chamber at room temperature for 1 hour. […] Furthermore, analysis was performed using Leica Application Suite X software (Leica Microsystems).
Specifically, halofuginone was administered to G93A mutant SOD1 mice from the early onset of ALS (day 73) in the same manner as described in Example 6. Immunohistochemical analysis was performed on the knee joints of early-stage female and male mice (90 days old, FIGS. 7a and 7b) and late-stage female and male mice (120 days old, FIGS. 7c and 7d) in the same manner as described in <Example 8>.

The test system is the same in assay [2]. Put plainly: Motor neuron cell count (ChAT) in lumbar spinal cord of ALS animal model. In kind it is in vivo, mouse. As for the experimental part:
as §1
Specifically, mice were sacrificed at various time points (90 days and 120 days) according to the clinical state of the mice of Example 6. Each mouse was transdermally perfused with cold 4% paraformaldehyde (PFA) following cold PBS, and lumbar spinal cord was separated. Samples were post-fixed in 4% paraformaldehyde, treated in a cold 30% sucrose solution, then freeze-protected, and then cross-sectional sections 14 μm thick were successively obtained. […] Motor neurons were quantified from ChAT-stained sections using a computer-assisted microscope (Olympus BX53) at 4× magnification, along with cellSens software. […] The fields analyzed were all ChAT+ profiles located in the ventral half of the immunostaining section clearly marked on the gray matter of each hemisphere.
In addition, to investigate the motor neuron source of the spinal cord, motor neurons of the lumbar spinal cord were observed and counted in the same manner as described in Example 9 (FIG. 9d), and real-time qRT-PCR and Western blot analysis were performed in the same manner as described in Example 11 and Example 12 to quantitatively analyze the expression of ChAT mRNA (FIG. 9e) and ChAT protein (FIG. 9f). […]

Where [3] appears, read: 90 days old (early stage), females and males, vs DMSO TG group.
[4] abbreviates: 120 days old (late stage), vs DMSO TG group.

Turning to `O=C(C[C@H]1NCCC[C@@H]1O)Cn1cnc2cc(Br)c(Cl)cc2c1=O` (racemic) [halofuginone], the “increase in TGF-β in knee joint synovial cavity” value in assay [1] (90 days old (early stage), females and males, 250 μg/kg i.p.) was “suppressed”. Further, in assay [1] (setting [3]), the “Col-I expression in knee joint synovial cavity” value is listed as “significantly lower” and the “α-SMA expression in knee joint synovial cavity” value is reported as “significantly lower”. In addition, in assay [1] (setting [4]), the “Col-I in the synovial cavity” value was “significantly lower”, the “MyoD in the synovial cavity” value is listed as “higher”, the “TGF-β1 in the synovial cavity” value was “significantly lower” and the “α-SMA in the synovial cavity” value is given as “significantly lower”. Moreover, in assay [1] (120 days old, female Hal TG group vs DMSO non-TG group), the “strength of TGF-β1, MyoD and Col-1 in the synovial cavity” value was “not different”. Also, the “strength of MyoD in the synovial cavity” value in assay [1] (120 days old, male Hal TG group vs DMSO non-TG group) was “slightly increased”. In addition, in assay [2] (90-day-old mice (FIG. 10b)), the “number of ChAT-positive motor neurons in lumbar spinal cord, compared with changes at 120 days” value is “similar”. Further, the “number of ChAT-positive motor neurons in lumbar spinal cord” value in assay [2] (120-day-old mice, compared to DMSO Non-TG group (FIG. 9d)) is reported as “preserved similarly”.
